AUC(0-t) and Cmax data for 1 compound are collected here from patent US10588866B2, “Stable solid lipid particle composition for improved bioavailability of lipophilic compounds for age-related diseases” (VERDURE SCIENCES, priority 2014, dated 2020).

The nature of this data set: Single oral dose pharmacokinetics of curcumin in plasma and mesenteric lymph. Type of data set: in vivo, Sprague-Dawley rats. As to conditions: Sprague-Dawley, rat, plasma, 75 mg/kg. Here is the method: Prior to treatment, the rats were anaesthetized followed by a surgical intervention to cannulate the mesenteric mesenteric lymph duct (for lymph collection) and the carotid artery (for blood collection). The cannulas were externalized and the rats were allowed to recover for 24 hours. Thereafter, either the curcumin suspension or the SLCP dosage form was administered via gavage. Blood (0.25 ml) was sampled prior to and 0.5, 1.0, 2.0, 3.0 and 5.0 hours after administration into vials coated with EDTA. Blood samples were centrifuged to obtain plasma and stored at <−30° C. until analysis. Mesenteric lymph (0.25 ml) was collected prior to and 1 and 5 hours after administration into vials coated with EDTA and stored at <−30° C. until analysis.
Analysis of curcumin and glucuronated curcumin was performed by HPLC with UV-detection coupled to MS according to published methods. […] The Limit of Determination was set to 2.5 ng/ml biological fluid.

In general, AUC(0-t) refers to the area under the concentration-time curve up to a stated or last time point. One may read the Cmax as the highest concentration seen after dosing. For `COc1cc(/C=C/C(=O)CC(=O)/C=C/c2ccc(O)c(OC)c2)ccc1O` [Standard, Curcumin], the AUC(0-t) worked out at 562 ng·h/mL and the highest level (Cmax) was 190 ng/mL.
